Results from US6596772B1, “Phosphate mimics and methods of treatment using phosphatase inhibitors” (Sugen, Inc., priority 1999, dated 2003).
Where two headings read alike, the source gives them in different places.

Columns and labels:
Assay in all cases: PTP IC50 assay, fluorescent substrate DiFMUP
Type in all cases: biochemical
PTP SHP2 = molecular target: T1, PTP SHP2 (Homo sapiens, UniProt Q06124)
T1 construct: The catalytic domain was amplified using the following oligonucleotides; made in house; host or cells: Sf-9 insect cells (pFastBac-G2T)
T1 sequence (Q06124 247-517 limits assumed): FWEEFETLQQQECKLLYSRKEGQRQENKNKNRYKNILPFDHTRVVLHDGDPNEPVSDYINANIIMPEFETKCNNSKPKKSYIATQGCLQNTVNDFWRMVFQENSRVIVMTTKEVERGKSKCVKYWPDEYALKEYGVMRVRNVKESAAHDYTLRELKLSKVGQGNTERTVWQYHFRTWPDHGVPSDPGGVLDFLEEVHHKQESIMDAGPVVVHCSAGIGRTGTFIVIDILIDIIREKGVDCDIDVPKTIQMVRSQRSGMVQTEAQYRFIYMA
From the text: SHP-2 cDNA was used as described earlier (Vogel W., et al.,1993, Science, 259:1611-4). The catalytic domain was amplified using the following oligonucleotides 5′oligo: 5′-[…]-3′ (SEQ ID NO: 2) 3′oligo: 5′-[…]-3′ (SEQ ID NO: 3) and subsequently subcloned into BamH1-Xba-1 sites. It was then ligated into pfas Bac-G2T BamH1-Xba-1 sites.
(§1) The following in vitro assay procedure is preferred to determine the level of activity and effect of the different compounds of the present invention on one or more of the PTPs. Similar assays can be designed along the same lines for any PTP using techniques well known in the art.
(§2) The catalytic assays described herein are performed in a 96-well format. The general procedure begins with the determination of PTP optimal pH using a three-component buffer system that minimizes ionic strength variations across a wide range of buffer pH. Next, the Michaelis-Menten constant, or Km, is determined for the substrate 6,8-difluoro-4-methylumbelliferyl phosphate (DiFMUP). This Km value is subsequently used as the substrate reaction concentration for compound screening. Finally, the test PTP is exposed to varying concentrations of compound for fifteen minutes and allowed to react with substrate for ten minutes. The results are plotted as percent inhibition versus compound concentration and the IC50 interpolated from the plot.
(§3) All assays were performed using DiFMUP as substrate. The optimum pH and substrate Km was determined for each PTP used.
(§4) PTPase activity was assayed at 25° C. in a 100-μl reaction mixture containing an appropriate concentration of DiFMUP as substrate. The reaction was initiated by addition of the purified PTP and quenched after 10 min by addition of 1% H2O2/100 mM NaCl. The non-enzymatic hydrolysis of the substrate was corrected by measuring the control without the addition of the enzyme. The amount of DiFMU produced was determined from the increase in the fluorescence (360 nm excitation/460 nm emission) over that of background in the absence of PTPase. To determine the kinetic parameter, Km, the initial velocities were measured at various substrate concentrations and the data were fitted to the Michaelis equation where velocity=(Vmax*[S])/(Km+[S]), and [S]=substrate reaction concentration.
(§5) The effect of the compounds on PTP was evaluated at 25° C. using DiFMUP as substrate. PTP was pre-incubated for fifteen minutes with various concentrations of compound. Substrate was then added at a fixed concentration (usually equal to the Km previously calculated). After 10 minutes, the reaction was quenched. The hydrolysis of DiFMUP was followed as described above. The percent inhibition was calculated as follows: Percent Inhibition=[(control signal−compound signal)/control signal]×100%. The IC50 was then determined by interpolation of a percent inhibition versus compound concentration plot.
(§6) Plasmids designed for bacterial GST-PTP fusion protein expression were derived by insertion of PCR-generated human PTP fragments into pGEX vectors (Pharmacia Biotech). Several of these constructs were then used to subclone phosphatases into pFastBac-1 for expression in Sf-9 insect cells. Oligonucleotides used for the initial amplification of PTP genes are as described above. The cDNAs were prepared using the Gilbo BRL superscript preamplification system on RNAs purchased from Clontech.

PTP 1B = molecular target: T2, PTP 1B (Homo sapiens, UniProt P18031)
T2 construct: made in house; host or cells: Sf-9 insect cells (pFastBac-G2T)
T2 sequence (P18031 1-435): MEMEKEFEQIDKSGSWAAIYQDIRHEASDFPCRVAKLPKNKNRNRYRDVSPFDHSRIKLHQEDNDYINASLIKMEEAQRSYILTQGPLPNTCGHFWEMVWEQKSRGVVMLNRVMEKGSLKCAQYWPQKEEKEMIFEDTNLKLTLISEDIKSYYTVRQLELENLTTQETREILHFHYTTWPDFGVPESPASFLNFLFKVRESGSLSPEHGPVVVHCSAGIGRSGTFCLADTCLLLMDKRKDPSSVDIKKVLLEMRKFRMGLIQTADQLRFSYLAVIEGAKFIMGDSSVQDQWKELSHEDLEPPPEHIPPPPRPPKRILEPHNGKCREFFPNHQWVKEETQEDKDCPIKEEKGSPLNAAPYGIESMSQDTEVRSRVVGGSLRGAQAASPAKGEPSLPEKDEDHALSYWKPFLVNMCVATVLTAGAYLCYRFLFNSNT
From the text: The PTP1b cDNA was amplified from human placenta single strand cDNA (Clontech RNA) using the following oligonucleotides: 5′oligo: 5′-[…] (SEQ ID NO: 4) 3′oligo: 5′-[…] (SEQ ID NO: 5) It was subsequently ligated into pFasBac G2TBamH1Xba-1 sites.
as §1, §2, §3, §4, §5, §6

PTP EPSILON = molecular target: T3, PTP EPSILON (Homo sapiens, UniProt P23469)
T3 construct: made in house; host or cells: Sf-9 insect cells (pFastBac-G2T); a pGEX 6P-1 construct also existed
T3 sequence (P23469 80-393 limits assumed): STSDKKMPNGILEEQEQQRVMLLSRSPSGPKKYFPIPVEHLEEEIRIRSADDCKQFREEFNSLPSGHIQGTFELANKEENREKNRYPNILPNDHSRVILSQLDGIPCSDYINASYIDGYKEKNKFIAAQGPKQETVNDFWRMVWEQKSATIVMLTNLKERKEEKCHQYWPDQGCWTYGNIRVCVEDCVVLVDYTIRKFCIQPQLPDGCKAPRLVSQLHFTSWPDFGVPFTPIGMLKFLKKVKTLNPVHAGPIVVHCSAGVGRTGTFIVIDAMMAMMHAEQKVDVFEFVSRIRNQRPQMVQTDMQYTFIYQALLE
From the text: The PTPepsilon cDNA was amplified from human placenta single-strand cDNA (Clontech RNA) using the following oligonucleotides: 5′oligo: 5′-[…]-3′ (SEQ ID NO: 6) 3′oligo: 5′-[…]-3′ (SEQ ID NO: 7) After cloning this PCR product into the Bam HI/Xho I sites of pGEX 6P-1, this phosphatase was subcloned using the same restriction sites in pFastBac-G2T.
as §1, §2, §3, §4, §5, §6

[1] = DiFMUP as substrate, 25° C., read-out: PTP IC50 SHP2
[2] = DiFMUP as substrate, 25° C., read-out: PTP IC50 1B
[3] = DiFMUP as substrate, 25° C., read-out: PTP IC50 Epilson

| SMILES | IC50 (PTP SHP2; [1]) [µM] | IC50 (PTP 1B; [2]) [µM] | IC50 (PTP EPSILON; [3]) [µM] | IC50 (PTP SHP2) [µM] | IC50 (PTP 1B) [µM] | IC50 (PTP EPSILON) [µM] |
| --- | --- | --- | --- | --- | --- | --- |
| CCOC(=O)c1cccc(NC(=O)c2ccc(-c3nc4cc(S(=O)(=O)C(F)(F)F)ccc4n3CC)cc2)c1 [Example 39, 3-[4-(1-Ethyl-5-trifluoromethanesulfonyl-1H-benzoimidazol-2-yl)-benzoylamino]-benzoic acid ethyl ester] | 1.2 | 3.7 | 1.5 | – | – | – |
| CCn1c(-c2ccc(C(=O)NCCN3CCCC3)cc2)nc2cc(S(=O)(=O)C(F)(F)F)ccc21 [Example 40, 4-(1-Ethyl-5-trifluoromethanesulfonyl-1H-benzoimidazol-2-yl)-N-(2-pyrrolidin-1-yl-ethyl)-benzamide] | > 100 | > 20 | > 100 | – | – | – |
| CCNC(=O)c1ccc(-c2nc3cc(S(=O)(=O)C(F)(F)F)ccc3n2CC)cc1 [Example 41, N-Ethyl-4-(1-ethyl-5-trifluoromethanesulfonyl-1H-benzoimidazol-2-yl)-benzamide] | 19 | > 20 | 13.5 | – | – | – |
| CCn1c(C(=O)O)nc2cc(S(=O)(=O)C(F)(F)F)ccc21 [Example 42, 1-Ethyl-5-trifluoromethanesulfonyl-1H-benzoimidazole-2-carboxylic acid] | > 100 | > 20 | 98 | – | – | – |
| CCCCN(C(=O)c1ccccc1)C(C(=O)NCC(=O)OC)c1ccc(S(=O)(=O)C(F)(F)F)cc1 (stereo not drawn) [Example 43, [2-(Benzoyl-butyl-amino)-2-(4-trifluoromethanesulfonyl-phenyl)-acetylamino]-acetic acid methyl ester] | 74.6 | > 20 | 53.9 | – | – | – |
| CCCCNC(=O)C(c1ccc(S(=O)(=O)C(F)(F)F)cc1)N(Cc1ccccc1)C(=O)c1ccccc1 (stereo not drawn) [Example 44, N-Benzyl-N-[butylcarbamoyl-(4-trifluoromethanesulfonyl-phenyl)-methyl]-benzamide] | 22.7 | 15.8 | 19 | – | – | – |
| CCCCNC(=O)C(c1ccc(S(=O)(=O)C(F)(F)F)cc1)N(CCO)C(=O)c1ccccc1 (stereo not drawn) [Example 45, N-[Butylcarbamoyl-(4-trifluoromethanesulfonyl-phenyl)-methyl]-N-(2-hydroxy-ethyl)-benzamide] | > 100 | > 100 | > 100 | – | – | – |
| CCOC(=O)CNC(=O)C(c1ccc(S(=O)(=O)C(F)(F)F)cc1)N(C(C)=O)C1CC1 (stereo not drawn) [Example 46, [2-(Acetyl-cyclopropyl-amino)-2-(4-trifluoromethanesulfonyl-phenyl)-acetylamino]-acetic acid ethyl ester] | > 100 | > 100 | > 100 | – | – | – |
| Cc1cccc(C)c1NC(=O)C(c1ccc(S(=O)(=O)C(F)(F)F)cc1)N(C(=O)c1ccccc1)C1CCCCC1 (stereo not drawn) [Example 49, N-Cyclohexyl-N-[(2,6-dimethyl-phenylcarbamoyl)-(4-trifluoromethanesulfonyl-phenyl)-methyl]-benzamide] | 10.6 | 8.3 | 9.3 | – | – | – |
| CCCN(C(C)=O)C(C(=O)NCC(=O)OCC)c1ccc(S(=O)(=O)C(F)(F)F)cc1 (stereo not drawn) [Example 50, [2-(Acetyl-propyl-amino)-2-(4-trifluoromethanesulfonyl-phenyl)-acetylamino]-acetic acid ethyl ester] | > 100 | > 100 | > 100 | – | – | – |
| CCOC(=O)CNC(=O)C(c1ccc(S(=O)(=O)C(F)(F)F)cc1)N(C(C)=O)C1CCCCC1 (stereo not drawn) [Example 51, [2-(Acetyl-cyclohexyl-amino)-2-(4-trifluoromethanesulfonyl-phenyl)-acetylamino]-acetic acid ethyl ester] | > 100 | > 100 | > 100 | – | – | – |
| O=C(O)COc1ccc(S(=O)(=O)c2ccc(Oc3ccc(S(=O)(=O)C(F)(F)F)cc3[N+](=O)[O-])cc2)cc1 [Example 52, {4-[4-(2-Nitro-4-trifluoromethanesulfonyl-phenoxy)-benzenesulfonyl]-phenoxy}-acetic acid] | 8 | > 20 | 64.5 | – | – | – |
| O=C(O)c1ccc(OCCOc2ccc(S(=O)(=O)C(F)(F)F)cc2[N+](=O)[O-])cc1 [Example 53, 4-[2-(2-Nitro-4-trifluoromethanesulfonyl-phenoxy)-ethoxy]-benzoic acid] | 1.5 | 1.5 | 22.2 | – | – | – |
| O=[N+]([O-])c1ccccc1NCC(O)COc1ccc(S(=O)(=O)C(F)(F)F)cc1[N+](=O)[O-] (stereo not drawn) [Example 58, 1-(2-Nitro-phenylamino)-3-(2-nitro-4-trifluoromethanesulfonyl-phenoxy)-propan-2-ol] | 4.4 | 9.4 | 29.1 | – | – | – |
| O=[N+]([O-])c1ccc(NCC(COc2ccc(S(=O)(=O)C(F)(F)F)cc2[N+](=O)[O-])Oc2ccc(S(=O)(=O)C(F)(F)F)cc2[N+](=O)[O-])cc1 (stereo not drawn) [Example 59, [2,3-Bis-(2-nitro-4-trifluoromethanesulfonyl-phenoxy)-propyl]-(4-nitro-phenyl)-amine] | – | – | – | 0.2 | 0.9 | 38.1 |
| O=[N+]([O-])c1ccc(NCC(O)COc2ccc(S(=O)(=O)C(F)(F)F)cc2[N+](=O)[O-])cc1 (stereo not drawn) [Example 60, 1-(4-Nitro-phenylamino)-3-(2-nitro-4-trifluoromethanesulfonyl-phenoxy)-propan-2-ol] | 4.8 | 16.2 | 50.9 | – | – | – |
| O=[N+]([O-])c1cc(S(=O)(=O)C(F)(F)F)ccc1Oc1ccc(S(=O)(=O)c2ccc(Oc3ccc(S(=O)(=O)C(F)(F)F)cc3[N+](=O)[O-])cc2)cc1 [Example 63, Bis-{[4-(2-nitro-4-trifluoromethanesulfonyl)-phenoxy]-phenyl}sulfone] | – | – | – | 0.4 | 0.7 | 2.4 |
| O=C(O)c1cc2cc(NS(=O)(=O)C(F)(F)F)ccc2[nH]1 [Example 77, 5-Trifluoromethanesulfonylamino-1H-indole-2-carboxylic acid] | > 100 | > 100 | > 20 | – | – | – |
